Patent US7705016B2, “Regulation of food intake by modulation of long-chain fatty acyl-CoA levels in the hypothalamus” (Albert Einstein College of Medicine of Yeshiva University, priority 2003, dated 2010)

Tested on: CPT1L mRNA
Experiment: CPT1L mRNA in hypothalamic nuclei micro punches by real-time PCR after ICV injection
Assay type: in vivo, rat
Conditions: 3 days after ICV injection; adjusted for β-actin
Protocol: Surgical implantation of ICV cannulae was performed on day 1 (˜3 weeks prior to the in vivo study). Full recovery of body weight and food intake was achieved by day 7. Rats randomized for ribozyme treatment received an ICV injection of CPT1L-Ribo, CPT inhibitors or controls on day 17. The experimental group treated with TDGA received ICV injection of the inhibitor on day 21, 6 hr prior to the harvesting of brains. Panels B. and C. show quantitation of CPT1L (B) and CPT1M (C) mRNA by real-time PCR. RNA was purified from individual hypothalamic nuclei (PVN, LHA, and arcuate), which were obtained by micro punch technique 3 days after ICV injection of pTarget control (▪; N=4) or CPT1LRibo (□; N=5). […] CPT1 activity was measured in the particulate fraction of protein extracts from animals treated with ICV control injections (▪; N=6, receiving aCSF+2% DMSO or Control Ribo), TDGA ( ?; N=6), or CPTL-Ribo (□; N=5). […] Levels of stearoyl-CoA (F) and oleyl-CoA (E) respectively were measured by HPLC in arcuate of rats injected ICV with control compound (▪; ST1340) or ST1326 (□).
ICV catheters were implanted in male Sprague-Dawley rats by stereotaxic surgery (Obici et al., 2002a; Obici et al., 2001; Liu et al., 1998). […] Thus, we next measured CPT1 activity in ARC and in whole hypothalamus. […]
Quantitation of CPT1 and neuropeptides mRNA by Northern and real-time PCR. […]

Question: With “CPT1L-Ribo: plasmid (pTarget, CMV promoter) expressing a hammerhead ribozyme that specifically cleaves rat CPT1L mRNA, complexed to PEI for ICV injection (DNA CUGUACCAAAGAGCUGUAGAGUCCGUGAGGACGAAACGCCGCUCACAAUG)” as the substance, how does the “CPT1L mRNA in the arcuate nuclei (ARC)” value read?
Answer: marked decrease
